Source: ChEMBL document CHEMBL4428031, “Verbascoside Inhibits Promastigote Growth and Arginase Activity of Leishmania amazonensis” (J Nat Prod, 2016)
pEC50, pKi: −log10 of the molar value. The source made the active and inactive calls. The calls are words filed in the database; no cut-off is given here.

Key:
[1] = test system: Leishmania donovani; assay: Antileishmanial activity against Leishmania donovani axenic amastigotes after 72 hrs by alamar blue assay; format: functional, organism-based
[2] = test system: Leishmania amazonensis; assay: Antileishmanial activity against Leishmania amazonensis MHOM/BR/1973/M2269 promastigotes assessed as reduction in cell viability at 100 uM after 72 hrs by trypan blue dye based Neubauer chamber method; format: functional, organism-based
[3] = test system: Leishmania amazonensis; assay: Antileishmanial activity against Leishmania amazonensis MHOM/BR/1973/M2269 promastigotes assessed as reduction in cell viability incubated up to 72 hrs by trypan blue dye based Neubauer chamber method; format: functional, organism-based; conditions: MHOM/BR/1973/M2269, 72 h
[4] = molecular target: Arginase (Leishmania amazonensis, UniProt O96394); assay: Competitive inhibition of Leishmania amazonensis arginase assessed as inhibition constant for enzyme-inhibitor complex using L-arginine as substrate incubated for 15 mins by Dixon plot analysis

pKi [4]: 6.15
SMILES: C[C@@H]1O[C@@H](O[C@@H]2[C@@H](O)[C@H](OCCc3ccc(O)c(O)c3)O[C@H](CO)[C@H]2OC(=O)/C=C/c2ccc(O)c(O)c2)[C@H](O)[C@H](O)[C@H]1O [ACETOSIDE]
pEC50 [1]: 4.85
Activity [2]: Active
pEC50 [3]: 4.72
